Test results published in patent EP3985010A1, “SPIROCYCLIC INHIBITORS OF HEPATITIS B VIRUS” (priority 2020, dated 2022).

Each molecule was assayed on HBV (assay: Anti-HBV activity in vitro: quantification of extracellular HBV DNA by direct qPCR in HepAD38 cells). Details: Hepatitis B virus, doxycycline-free medium, 96 hours at 37°C, 8-point dose-response curve, read-out: HBV inh EC50.
Assay type: cell-based
Excerpt: HepAD38 cell line (Ladner et al., Antimicrob Agents Chemother, 1997, 41, 1715-20) was used for HBV inhibition assays. HepAD38 is a subclone, derived from hepatoblastoma cell line HepG2 (ATCC® Number: HB-8065™), that expresses HBV genome under the transcriptional control of a tetracycline-responsive promoter in a TET-OFF system: addition of doxycycline, an antibiotic belonging to the class of tetracycline, suppresses HBV replication, while its removal switches on the process allowing HBV viral particles release in the cell supernatant. HepAD38 cell line is maintained in DMEM/F12, supplemented with 10% of fetal bovine serum, 1% of glutamine, 1% of penicillin/streptomycin, 0.4 mg/ml G418 and 0,3 ug/ml tetracycline. For the HBV inhibition assay, doxycycline-free medium is used in order to allow virion production.
HBV inhibition activity in vitro was performed in 96 multiwell plates. During the initial (primary) screening, compounds were first tested in triplicates at concentrations of 0.02 µM, 0.1µM, 0.5µM and 1µM. For selected compounds, an 8-point dose-response curve was obtained using 1:2 serial dilutions (starting from 0.01µM, 0.1µM, 0.4µM or 5 µM, depending on the degree of inhibition observed during the primary screening). From the dose-response curves, half maximal effective concentration (EC50) could be calculated (see also below).
In more detail, compounds - typically dissolved in DMSO stock solutions - were diluted to 2x the final desired concentration in 100 µl of the above medium (without doxycycline) and plated in three replicates in the 96-well plates.
Simultaneously, HepAD38 cells - extensively pre-washed in doxycycline-free medium in order to induce HBV production - were suspended at 2^∗10^4 cells in 100 µl of doxycycline-free medium and added to each well of the plate, to yield a final assay volume of 200 µl DMSO - used for stock solutions and compounds dilutions - which was always present in the assays at a final concentration of 0.5%.
Plates were then incubated 96 hours at 37°C and then subjected to cell viability assays and extracellular HBV quantification, in order to evaluate both the cytotoxic potential and the antiviral activity of compounds. Cytotoxicity was assessed by a commercial fluorescence assay that measures the metabolic activity of cells, directly related to cell viability (Cell Titer Blue, Promega). Anti-HBV activity was evaluated by quantification of extracellular HBV DNA with direct qPCR. In particular, supernatant was collected and centrifuged for cell debris clarification, viral DNA was extracted from virions by addition of lysis buffer (1 mM 1,4-dithiothreitol, 0.2% sodium dodecyl sulphate) and incubated at 95°C for 10 min. Samples were then diluted 1:40 and real time PCR amplification was performed with SYBR green assay (Power SYBR™ Green PCR Master Mix-Thermo Fisher Scientific) and specific HBV primer (HBV-DF:5'-[…]-3' (SEQ ID No. 1), HBV-DR:5'-[…]-3' (SEQ ID No. 2)).
Antiviral activity data for each compound are reported as EC50 value (see Table 1 legend). Excel and Graphpad Prism programs are typically used for data elaboration and EC50 calculation.

Row | SMILES | EC50 [µM]
1 | Cn1cc2c(c1C(=O)Nc1ccc(F)c(C(F)F)c1)OC[C@@]1(CCN(C(=O)C(=O)NC(C)(C)C(F)(F)F)C1)NS2(=O)=O [Example E28, (S)-N-(3-(difluoromethyl)-4-fluorophenyl)-7'-methyl-1-(2-oxo-2-((1,1,1-trifluoro-2-methylpropan-2-yl)amino)acetyl)-2'H,4'H,7'H-spiro[pyrrolidine-3,3'-pyrrolo[3,4-b][1,4,5]oxathiazepine]-6'-carboxamide 1',1'-dioxide] | < 0.5
2 | C[C@H](NC(=O)C(=O)N1CC[C@]2(COc3c(cn(C)c3C(=O)Nc3ccc(F)c(C(F)F)c3)S(=O)(=O)N2)C1)C(F)(F)F [Example E23, (R)-N-(3-(difluoromethyl)-4-fluorophenyl)-7'-methyl-1-(2-oxo-2-(((S)-1,1,1-trifluoropropan-2-yl)amino)acetyl)-2'H,4'H,7'H-spiro[pyrrolidine-3,3'-pyrrolo[3,4-b][1,4,5]oxathiazepine]-6'-carboxamide 1',1'-dioxide] | < 0.5
3 | C[C@@H](NC(=O)C(=O)N1CC2(COc3c(cn(C)c3C(=O)Nc3ccc(F)c(Cl)c3)S(=O)(=O)N2)C1)C(F)(F)F [Example E9, (R)-N-(3-chloro-4-fluorophenyl)-7'-methyl-1-(2-oxo-2-((1,1,1-trifluoropropan-2-yl)amino)acetyl)-2'H,4'H,7'H-spiro[azetidine-3,3'-pyrrolo[3,4-b][1,4,5]oxathiazepine]-6'-carboxamide 1',1'-dioxide] | < 0.5
4 | Cn1cc2c(c1C(=O)Nc1ccc(F)c(C(F)F)c1)OCC1(CN(C(=O)C(=O)NC3CC3)C1)NS2(=O)=O [Example E19, 1-(2-(cyclopropylamino)-2-oxoacetyl)-N-(3-(difluoromethyl)-4-fluorophenyl)-7'-methyl-2'H,4'H,7'H-spiro[azetidine-3,3'-pyrrolo[3,4-b][1,4,5]oxathiazepine]-6'-carboxamide 1',1'-dioxide] | < 0.5
5 | C[C@H](NC(=O)C(=O)N1CC2(COc3c(cn(C)c3C(=O)Nc3ccc(F)c(Cl)c3)S(=O)(=O)N2)C1)C(F)(F)F [Example E16, (S)-N-(3-chloro-4-fluorophenyl)-7'-methyl-1-(2-oxo-2-((1,1,1-trifluoropropan-2-yl)amino)acetyl)-2'H,4'H,7'H-spiro[azetidine-3,3'-pyrrolo[3,4-b][1,4,5]oxathiazepine]-6'-carboxamide 1',1'-dioxide] | < 0.5
6 | Cn1cc2c(c1C(=O)Nc1ccc(F)c(Cl)c1)OCC1(CCN(C(=O)C(=O)NCC(F)(F)F)CC1)NS2(=O)=O [Example E13, N-(3-chloro-4-fluorophenyl)-7'-methyl-1-(2-oxo-2-((2,2,2-trifluoroethyl)amino)acetyl)-2'H,4'H,7'H-spiro[piperidine-4,3'-pyrrolo[3,4-b][1,4,5]oxathiazepine]-6'-carboxamide 1',1'-dioxide] | < 0.5
7 | C[C@@H](NC(=O)C(=O)N1CCC2(COc3c(c(Cl)n(C)c3C(=O)Nc3ccc(F)c(F)c3)S(=O)(=O)N2)C1)C(F)(F)F (stereo partly drawn) [Example E3, 8'-chloro-N-(3,4-difluorophenyl)-7'-methyl-1-(2-oxo-2-(((R)-1,1,1-trifluoropropan-2-yl)amino)acetyl)-2'H,4'H,7'H-spiro[pyrrolidine-3,3'-pyrrolo[3,4-b][1,4,5]oxathiazepine]-6'-carboxamide 1',1'-dioxide] | < 0.5
8 | C[C@@H](NC(=O)C(=O)N1CC[C@@]2(COc3c(cn(C)c3C(=O)Nc3ccc(F)c(C(F)F)c3)S(=O)(=O)N2)C1)C(F)(F)F [Example E11, (S)-N-(3-(difluoromethyl)-4-fluorophenyl)-7'-methyl-1-(2-oxo-2-(((R)-1,1,1-trifluoropropan-2-yl)amino)acetyl)-2'H,4'H,7'H-spiro[pyrrolidine-3,3'-pyrrolo[3,4-b][1,4,5]oxathiazepine]-6'-carboxamide 1',1'-dioxide] | < 0.5
9 | C[C@@H](NC(=O)C(=O)N1CCC2(COc3c(cn(C)c3C(=O)Nc3ccc(F)c(F)c3)S(=O)(=O)N2)C1)C(F)(F)F (stereo partly drawn) [Example E1, N-(3,4-difluorophenyl)-7'-methyl-1-(2-oxo-2-(((R)-1,1,1-trifluoropropan-2-yl)amino)acetyl)-2'H,4'H,7'H-spiro[pyrrolidine-3,3'-pyrrolo[3,4-b][1,4,5]oxathiazepine]-6'-carboxamide 1',1'-dioxide] | < 0.5
10 | C[C@@H](NC(=O)C(=O)N1CC2(COc3c(c(Cl)n(C)c3C(=O)Nc3ccc(F)c(Cl)c3)S(=O)(=O)N2)C1)C(F)(F)F [Example E31, (R)-8'-chloro-N-(3-chloro-4-fluorophenyl)-7'-methyl-1-(2-oxo-2-((1,1,1-trifluoropropan-2-yl)amino)acetyl)-2'H,4'H,7'H-spiro[azetidine-3,3'-pyrrolo[3,4-b][1,4,5]oxathiazepine]-6'-carboxamide 1',1'-dioxide] | < 0.5
11 | C[C@@H](NC(=O)C(=O)N1CC2(COc3c(cn(C)c3C(=O)Nc3ccc(F)c(C(F)F)c3)S(=O)(=O)N2)C1)C(F)(F)F [Example E10, (R)-N-(3-(difluoromethyl)-4-fluorophenyl)-7'-methyl-1-(2-oxo-2-((1,1,1-trifluoropropan-2-yl)amino)acetyl)-2'H,4'H,7'H-spiro[azetidine-3,3'-pyrrolo[3,4-b][1,4,5]oxathiazepine]-6'-carboxamide 1',1'-dioxide] | < 0.5
12 | C[C@H](NC(=O)C(=O)N1CC[C@]2(COc3c(cn(C)c3C(=O)Nc3ccc(F)c(Cl)c3)S(=O)(=O)N2)C1)C(F)(F)F [Example E22, (R)-N-(3-chloro-4-fluorophenyl)-7'-methyl-1-(2-oxo-2-(((S)-1,1,1-trifluoropropan-2-yl)amino)acetyl)-2'H,4'H,7'H-spiro[pyrrolidine-3,3'-pyrrolo[3,4-b][1,4,5]oxathiazepine]-6'-carboxamide 1',1'-dioxide] | < 0.5
13 | C[C@@H](NC(=O)C(=O)N1CCC2(CC1)COc1c(cn(C)c1C(=O)Nc1ccc(F)c(C(F)F)c1)S(=O)(=O)N2)C(F)(F)F [Example E8, (R)-N-(3-(difluoromethyl)-4-fluorophenyl)-7'-methyl-1-(2-oxo-2-((1,1,1-trifluoropropan-2-yl)amino)acetyl)-2'H,4'H,7'H-spiro[piperidine-4,3'-pyrrolo[3,4-b][1,4,5]oxathiazepine]-6'-carboxamide 1',1'-dioxide] | < 0.5
14 | Cn1cc2c(c1C(=O)Nc1ccc(F)c(Cl)c1)OC[C@@]1(CCN(C(=O)C(=O)NC(C)(C)C(F)(F)F)C1)NS2(=O)=O [Example E26, (S)-N-(3-chloro-4-fluorophenyl)-7'-methyl-1-(2-oxo-2-((1,1,1-trifluoro-2-methylpropan-2-yl)amino)acetyl)-2'H,4'H,7'H-spiro[pyrrolidine-3,3'-pyrrolo[3,4-b][1,4,5]oxathiazepine]-6'-carboxamide 1',1'-dioxide] | < 0.5
15 | C[C@@H](NC(=O)C(=O)N1CC[C@@]2(COc3c(cn(C)c3C(=O)Nc3ccc(F)c(Cl)c3)S(=O)(=O)N2)C1)C(F)(F)F [Example E5, (S)-N-(3-chloro-4-fluorophenyl)-7'-methyl-1-(2-oxo-2-(((R)-1,1,1-trifluoropropan-2-yl)amino)acetyl)-2'H,4'H,7'H-spiro[pyrrolidine-3,3'-pyrrolo[3,4-b][1,4,5]oxathiazepine]-6'-carboxamide 1',1'-dioxide] | < 0.5
16 | Cn1cc2c(c1C(=O)Nc1ccc(F)c(C(F)F)c1)OC[C@@]1(CCN(C(=O)C(=O)NCC(F)(F)F)C1)NS2(=O)=O [Example E27, (S)-N-(3-(difluoromethyl)-4-fluorophenyl)-7'-methyl-1-(2-oxo-2-((2,2,2-trifluoroethyl)amino)acetyl)-2'H,4'H,7'H-spiro[pyrrolidine-3,3'-pyrrolo[3,4-b][1,4,5]oxathiazepine]-6'-carboxamide 1',1'-dioxide] | < 0.5
